# Data taken from patent US5565425A, “Viral infection and proliferation inhibitors” (Snow Brand Milk Products Co., Ltd, priority 1993, dated 1996).
# Bridge positions count the residues as written; N and C are the ends. Peptide text beside a SMILES is read from it.
# Legend:
# [1] = system: Human CMV (Tanaka strain); assay: Inhibitory activity against human CMV infection and proliferation in HELF cells (fluorescence staining); format: cell-based, Human cytomegalo virus
# Method: (Method) LF derived peptide was dissolved in 2% serum added MEM medium to give five mg/ml solution, filtered and sterilized to make a stock solution. The stock solution was diluted with 2% serum added MEM medium on use. Samples containing human embryo lung fibroblast cells (HELF cells) were suspended in 2% serum added MEM medium and incubated for 10 minutes. The cells were collected by centrifugation, washed twice with 2% serum added MEM medium and suspended in 2% serum added MEM medium. Human cytomegalo virus [Human CMV (Tanaka strain)] was added, incubated for 24 hrs., fluorescence stained with human CMV positive serum and the adsorption rate of human CMV to the cells was determined.
# The results are judged from the numbers of fluorescent stained cells per one cover slip.
# [2] = system: influenza virus A/PR/8/34; settings: 100 μl of one mg/ml solution in allantoic cavity three hours before virus; average of five eggs
# [3] = system: mouse cytomegalo virus (mouse CMV); assay: In vivo inhibitory activity against mouse CMV infection (survival of mice); settings: after 10 days
# Method: (§1) (Method) Male Balbc/AJcl mice, 4-week-old (10 in one group) were used. The sample was dissolved in phosphate buffer saline solution (PBS) and intraperitoneally administered to mice.
# [4] = system: HIV (HTLV-IIIB); assay: Inhibitory activity against HIV infection and proliferation in MT-4 cells (indirect fluorescence antibody method); format: cell-based, human immunodeficiency virus (HIV); settings: three days, positive control 26.0%
# Method: (Method) Cultured supernatant of MOLT-4/HTLV-IIIB cells, a HTLV-IIIB persistent infected strain of HIV, was used as a viral solution. The supernatant was kept at -80° C. Human T cell line MT-4 was used for the test. MT-4 was subcultured in RPMI 1640 medium containing 10% fetal calf serum (FCS). Sample, LF derived peptide, was dissolved in RPMI 1640 medium and one ml of the diluted solution at various concentrations was added to the cells. The inoculated MT-4 test sample was incubated for 60 minutes and infected with HIV at a concentration of moi […]=0.01 and one ml of the cell solution adjusted at a cell density of 3×10^5 cells/ml was added. The cells were cultured for three days : and HIV infected cells were determined with an indirect fluorescence antibody method.
# HIV infected cells were determined by the indirect fluorescence antibody method using HIV infected patient serum as a primary antibody. […] HIV infected MT-4 cells cultured without addition of the sample was used as a positive control and cells without addition of viral solution was cultured to make a negative control group.
# [5] = system: mouse cytomegalo virus (mouse CMV); assay: Infection protective test against mouse CMV by the time of administration; format: in vivo; settings: mice, 0.10 g/kg i.p., after 10 days
# Method: as §1, with “mice. […] Timing of administrations of the sample was made 48, 24, six and one hr. before, immediately after, one and six hrs. after the administration.” for “mice.”
smiles,measurement,setting,value
CC[C@H](C)[C@H](NC(=O)[C@@H]1CSSC[C@H](NC(=O)[C@H](CCCCN)NC(=O)[C@@H](N)[C@@H](C)O)C(=O)N[C@@H](Cc2ccccc2)C(=O)N[C@@H](CCC(N)=O)C(=O)N[C@@H](Cc2c[nH]c3ccccc23)C(=O)N[C@@H](CCC(N)=O)C(=O)N[C@@H](CCCNC(=N)N)C(=O)N[C@@H](CC(N)=O)C(=O)N[C@@H](CCSC)C(=O)N[C@@H](CCCNC(=N)N)C(=O)N[C@@H](CCCCN)C(=O)N[C@@H](C(C)C)C(=O)N[C@@H](CCCNC(=N)N)C(=O)NCC(=O)N2CCC[C@H]2C(=O)N2CCC[C@H]2C(=O)N[C@@H](C(C)C)C(=O)N[C@@H](CO)C(=O)N1)C(=O)N[C@@H](CCCCN)C(=O)N[C@@H](CCCNC(=N)N)C(=O)N[C@@H](CC(=O)O)C(=O)N[C@@H](CO)C(=O)O [Human LF (18-42)] (H-TKCFQWQRNMRKVRGPPVSCIKRDS-OH; disulfide 3-20),Inhibitory rate of human CMV infection,"[1]; 24 hrs., concentration not given",95.7%
same,Inhibitory rate (human CMV infection and proliferation),[1]; concentration 0.04 mg/ml,14.7%
same,Inhibitory rate (human CMV infection and proliferation),[1]; concentration 0.1 mg/ml,34.9%
same,Inhibitory rate (human CMV infection and proliferation),[1]; concentration 0.2 mg/ml,45.0%
same,Inhibitory rate (human CMV infection and proliferation),[1]; concentration 0.4 mg/ml,51.9%
same,Inhibitory rate (human CMV infection and proliferation),[1]; concentration 1.0 mg/ml,86.0%
same,Inhibitory rate (human CMV infection and proliferation),[1]; concentration 2.0 mg/ml,96.1%
same,Inhibitory rate of infection and proliferation of influenza virus,[2],96.9%
same,Survival rate,[3]; 0.02 g/kg of body weight i.p. 24 hrs. before mouse CMV,20%
same,Survival rate,[3]; 0.05 g/kg of body weight i.p. 24 hrs. before mouse CMV,50%
same,Survival rate,[3]; 0.10 g/kg of body weight i.p. 24 hrs. before mouse CMV,100%
same,Survival rate,[3]; 0.50 g/kg of body weight i.p. 24 hrs. before mouse CMV,100%
same,ratio of stained (HIV infected) cells,[4]; sample 63 μg/ml,17%
same,ratio of stained (HIV infected) cells,[4]; sample 125 μg/ml,8.8%
same,ratio of stained (HIV infected) cells,[4]; sample 250 μg/ml,6.7%
same,ratio of stained (HIV infected) cells,[4]; sample 500 μg/ml,2.9%
same,ratio of stained (HIV infected) cells,"[4]; sample 1,000 μg/ml",1.1%
same,Survival rate,[5]; time of administration 0 hrs.,100%
same,Survival rate,[5]; time of administration +1 hrs.,100%
same,Survival rate,[5]; time of administration +6 hrs.,60%
same,Survival rate,[5]; time of administration -1 hrs.,100%
same,Survival rate,[5]; time of administration -6 hrs.,100%
same,Survival rate,[5]; time of administration -24 hrs.,100%
same,Survival rate,[5]; time of administration -48 hrs.,60%
